Data set [1] concerns Staphylococcus aureus. Nature of the data set: Antimicrobial activity against community acquired methicillin-resistant Staphylococcus aureus USA300 assessed as inhibition of microbial growth. It is filed as functional.
A further data set has as its system Escherichia coli. Nature of the data set: Antimicrobial activity against Escherichia coli MC4100 assessed as inhibition of microbial growth. The format is functional.
For data set [2], the system named is Staphylococcus aureus. As to the kind of experiment: Antimicrobial activity against methicillin-susceptible Staphylococcus aureus SH1000 assessed as inhibition of microbial growth. The format is functional.
The test system of another data set is Erythrocyte. Nature of the data set: Hemolytic activity against human RBC assessed as concentration required to cause >20% hemolysis. The format is ADME, cell-based.
A further data set has as its system Enterococcus faecalis. Nature of the data set: Antimicrobial activity against Enterococcus faecalis OG1RF assessed as inhibition of microbial growth. It is filed as functional.
The subject of the next data set is Pseudomonas aeruginosa. As to the kind of experiment: Antimicrobial activity against Pseudomonas aeruginosa PAO1 assessed as inhibition of microbial growth. It is filed as functional.
Data set [3] deals with Staphylococcus aureus. Nature of the data set: microbe, parasite or virus in culture. The format is functional. As to conditions: ATCC 33591.
Description: Antimicrobial activity against hospital acquired methicillin-resistant Staphylococcus aureus ATCC 33591 assessed as inhibition of microbial growth

For the compound `C[N+]1(CCCCCCCCCC[N+]2(C)CCCC2)CCCC1.[Br-].[Br-]`, the MIC with Staphylococcus aureus [1], in the data set with Escherichia coli, with Staphylococcus aureus [2], in the data set with Enterococcus faecalis, in the data set on Pseudomonas aeruginosa and against Staphylococcus aureus [3] was greater than 250 µM in each case. For the same compound, the HC20 in the data set on Erythrocyte worked out at 125 µM.
`CCCCCCCCCCCCCCCC[N+]1(C)CCCC1.[Br-]`: the MIC in the data set with Staphylococcus aureus [1] was 2 µM; with Escherichia coli it was 125 µM; in the data set with Staphylococcus aureus [2], 4 µM; with Enterococcus faecalis, greater than 250 µM; in the data set on Pseudomonas aeruginosa, greater than 250 µM; against Staphylococcus aureus [3] it was 8 µM. Besides, the HC20 with Erythrocyte was determined as 16 µM.
As for `CCCCCCCCCCCCCC[N+]1(C)CCCC1.[Br-]`, the MIC in the data set with Staphylococcus aureus [1] is 8 µM; in the data set on Escherichia coli, 250 µM; in the data set with Staphylococcus aureus [2], 4 µM; with Enterococcus faecalis, greater than 250 µM; in the data set with Pseudomonas aeruginosa it was greater than 250 µM; against Staphylococcus aureus [3], 16 µM. Also, the HC20 with Erythrocyte stood at 32 µM.
As for `C[N+]1(CCCCCCCCCCCC[N+]2(C)CCCC2)CCCC1.[Br-].[Br-]`, the MIC in the data set with Staphylococcus aureus [1], in the data set on Escherichia coli, with Staphylococcus aureus [2], with Enterococcus faecalis, in the data set with Pseudomonas aeruginosa and against Staphylococcus aureus [3] was greater than 250 µM in each case. Also, the HC20 with Erythrocyte came to 125 µM.
Take `CCCCCCCCCCCC[N+]1(C)CCCC1.[Br-]`: the MIC with Staphylococcus aureus [1] is 32 µM; in the data set on Escherichia coli, greater than 250 µM; in the data set with Staphylococcus aureus [2], 32 µM; in the data set on Enterococcus faecalis, greater than 250 µM; in the data set on Pseudomonas aeruginosa, greater than 250 µM; in the data set with Staphylococcus aureus [3], 125 µM. In addition, the HC20 in the data set with Erythrocyte turned out to be 125 µM.
Take `CCCCCCCCCCCCCCCC[n+]1ccccc1.[Cl-]`: the HC20 in the data set on Erythrocyte is 8 µM.
Take `C(CCCC[S+]1CCCC1)CCC[S+]1CCCC1.[I-].[I-]`: the MIC with Staphylococcus aureus [1], in the data set with Escherichia coli, with Staphylococcus aureus [2], in the data set with Enterococcus faecalis, in the data set on Pseudomonas aeruginosa and against Staphylococcus aureus [3] was greater than 250 µM in each case. The HC20 with Erythrocyte was determined as 125 µM.
Consider `CCCCCCCCCCCC[S+]1CCCC1.[I-]`, for which the MIC in the data set on Staphylococcus aureus [1] is 16 µM; in the data set with Escherichia coli, greater than 250 µM; in the data set on Staphylococcus aureus [2], 16 µM; in the data set with Enterococcus faecalis, greater than 250 µM; with Pseudomonas aeruginosa, greater than 250 µM; against Staphylococcus aureus [3] it was 125 µM. Further, the HC20 with Erythrocyte came out at 125 µM.
As for `CCCCCCCCCCCCCC[S+]1CCCC1.[I-]`, the MIC was 4 µM with Staphylococcus aureus [1]; 250 µM with Escherichia coli; 4 µM in the data set on Staphylococcus aureus [2]; greater than 250 µM in the data set on Enterococcus faecalis; greater than 250 µM in the data set on Pseudomonas aeruginosa; 32 µM in the data set with Staphylococcus aureus [3]. Further, the HC20 in the data set on Erythrocyte is 16 µM.
Regarding `CCCCCCCC[S+]1CCCC1.[I-]`, the MIC in the data set on Staphylococcus aureus [1], in the data set on Escherichia coli, with Staphylococcus aureus [2], in the data set with Enterococcus faecalis, in the data set with Pseudomonas aeruginosa and in the data set with Staphylococcus aureus [3] was greater than 250 µM throughout. For the same compound, in the data set with Erythrocyte, the HC20 was determined as 125 µM.
`CCCCCCCCCC[N+]1(C)CCCC1.[Br-]`: the MIC in the data set with Staphylococcus aureus [1], in the data set on Escherichia coli, in the data set with Staphylococcus aureus [2], in the data set on Enterococcus faecalis, with Pseudomonas aeruginosa and against Staphylococcus aureus [3] was greater than 250 µM throughout. Further, the HC20 with Erythrocyte was 250 µM.
In the case of `CCCCCCCCCCC[N+]1(C)CCCC1.[Br-]`, the MIC in the data set with Staphylococcus aureus [1] is 125 µM; in the data set with Escherichia coli, greater than 250 µM; with Staphylococcus aureus [2] it was 125 µM; in the data set on Enterococcus faecalis it was greater than 250 µM; in the data set on Pseudomonas aeruginosa it was greater than 250 µM; in the data set with Staphylococcus aureus [3], greater than 250 µM. For the same compound, in the data set on Erythrocyte, the HC20 stood at 125 µM.
`CCCCCCCCCCCCCCCCCC[S+]1CCCC1.[I-]`: the MIC with Staphylococcus aureus [1] was 4 µM; with Escherichia coli, 63 µM; in the data set on Staphylococcus aureus [2], 1 µM; in the data set on Enterococcus faecalis it was greater than 250 µM; in the data set on Pseudomonas aeruginosa, 250 µM; in the data set with Staphylococcus aureus [3], 8 µM. Moreover, the HC20 in the data set on Erythrocyte was 16 µM.
In the case of `C(CCCCC[S+]1CCCC1)CCCC[S+]1CCCC1.[I-].[I-]`, the MIC is 250 µM in the data set on Staphylococcus aureus [1]; greater than 250 µM in the data set on Escherichia coli; 250 µM with Staphylococcus aureus [2]; greater than 250 µM with Enterococcus faecalis; greater than 250 µM in the data set with Pseudomonas aeruginosa; greater than 250 µM against Staphylococcus aureus [3]. Also, the HC20 with Erythrocyte worked out at 125 µM.
With `CCCCCCCC[N+]1(C)CCCC1.[Br-]`, the MIC in the data set on Staphylococcus aureus [1], with Escherichia coli, in the data set with Staphylococcus aureus [2], with Enterococcus faecalis, with Pseudomonas aeruginosa and against Staphylococcus aureus [3] was greater than 250 µM throughout. In the data set with Erythrocyte, the HC20 came to 125 µM.
Turning to `CCCCCCCCCCCCC[N+]1(C)CCCC1.[Br-]`, the MIC with Staphylococcus aureus [1] was 16 µM; in the data set with Escherichia coli it was greater than 250 µM; in the data set with Staphylococcus aureus [2] it was 8 µM; in the data set with Enterococcus faecalis it was greater than 250 µM; with Pseudomonas aeruginosa it was greater than 250 µM; with Staphylococcus aureus [3] it was 63 µM. Moreover, the HC20 in the data set with Erythrocyte amounted to 63 µM.
On to `C(CCCCCC[S+]1CCCC1)CCCCC[S+]1CCCC1.[I-].[I-]`, for which the MIC in the data set with Staphylococcus aureus [1] was 250 µM; in the data set with Escherichia coli, greater than 250 µM; in the data set on Staphylococcus aureus [2] it was 250 µM; with Enterococcus faecalis, greater than 250 µM; in the data set on Pseudomonas aeruginosa, greater than 250 µM; in the data set with Staphylococcus aureus [3] it was greater than 250 µM. Besides, the HC20 with Erythrocyte was 250 µM.
For `CCCCCCCCCCC[S+]1CCCC1.[I-]`, the MIC in the data set with Staphylococcus aureus [1] is 250 µM; in the data set with Escherichia coli it was greater than 250 µM; with Staphylococcus aureus [2], 125 µM; with Enterococcus faecalis, greater than 250 µM; in the data set with Pseudomonas aeruginosa, greater than 250 µM; against Staphylococcus aureus [3] it was 250 µM. Further, the HC20 in the data set with Erythrocyte amounted to 125 µM.
As for `CCCCCCCCCCCCCCCCCC[N+]1(C)CCCC1.[Br-]`, the MIC in the data set with Staphylococcus aureus [1] was 4 µM; in the data set on Escherichia coli it was 63 µM; with Staphylococcus aureus [2], 2 µM; in the data set on Enterococcus faecalis it was greater than 250 µM; with Pseudomonas aeruginosa, 250 µM; in the data set with Staphylococcus aureus [3], 8 µM. In the data set on Erythrocyte, the HC20 worked out at 16 µM.
For `CCCCCCCCCCCCC[S+]1CCCC1.[I-]`, the MIC was 32 µM in the data set with Staphylococcus aureus [1]; greater than 250 µM with Escherichia coli; 8 µM with Staphylococcus aureus [2]; greater than 250 µM in the data set on Enterococcus faecalis; greater than 250 µM in the data set on Pseudomonas aeruginosa; 125 µM in the data set on Staphylococcus aureus [3]. Also, the HC20 in the data set with Erythrocyte was 63 µM.
Regarding `CCCCCCCCCC[S+]1CCCC1.[I-]`, the MIC was 250 µM with Staphylococcus aureus [1]; greater than 250 µM with Escherichia coli; 250 µM with Staphylococcus aureus [2]; greater than 250 µM in the data set on Enterococcus faecalis; greater than 250 µM in the data set with Pseudomonas aeruginosa; greater than 250 µM against Staphylococcus aureus [3]. Further, in the data set with Erythrocyte, the HC20 came to 125 µM.
On to `C[N+]1(CCCCCCCC[N+]2(C)CCCC2)CCCC1.[Br-].[Br-]`, for which the MIC in the data set with Staphylococcus aureus [1], with Escherichia coli, with Staphylococcus aureus [2], in the data set on Enterococcus faecalis, in the data set on Pseudomonas aeruginosa and with Staphylococcus aureus [3] was greater than 250 µM in each case. Also, the HC20 in the data set on Erythrocyte is 125 µM.
Consider `CCCCCCCCCCCCCCCC[S+]1CCCC1.[I-]`, for which the MIC in the data set on Staphylococcus aureus [1] is 4 µM; in the data set with Escherichia coli, 125 µM; in the data set with Staphylococcus aureus [2], 2 µM; in the data set on Enterococcus faecalis, greater than 250 µM; in the data set with Pseudomonas aeruginosa, greater than 250 µM; with Staphylococcus aureus [3], 8 µM. Further, the HC20 in the data set with Erythrocyte is 16 µM.

Values taken from ChEMBL document CHEMBL4706678, “Trivalent sulfonium compounds (TSCs): Tetrahydrothiophene-based amphiphiles exhibit similar antimicrobial activity to analogous ammonium-based amphiphiles” (Bioorg Med Chem Lett, 2021).
